Source: patent US7645740B2, “Peptide sequence found in Laminin 5 for treating skin impairments” (Laboratoires d'Anjou Centre National de la Recherche …, priority 2004, dated 2010)

Assays:
[1] = system: HBL100 cells (human mammary epithelium); experiment: Cell adhesion test to immobilized peptides, HBL100; assay type: cell-based
Method: Dose-dependent cell adhesion of cell line HBL100 to various peptides 1, 2 and 3. The peptides were immobilized in 96-well plates at the concentrations given on the abscissa. 8×10^4 cells were deposited in each well and plates were incubated at 37° C. for 1 hour. After washing, attached cells were fixed and cell adhesion was measured as described in the methodology section.
Peptides 1, 2 and 3 were used for the cell adhesion experiments. A range of 7 decreasing concentrations (100 micrograms/ml, 50 micrograms/ml, 25 micrograms/ml, 12.5 micrograms/ml, 6.25 micrograms/ml, 3.125 micrograms/ml and 1.562 micrograms/ml) was made up by successive dilution in PBS (Phosphate Buffer Saline, KH2PO4 1.54 mM; Na2HPO4 1.42 mM; NaCl-131 mM) using a starting solution at a concentration of 1 mg/ml. These solutions were immediately distributed onto a 96-well culture plate (Greinher, Dutscher, Brumath, France) at a rate of 100 μl per well. Plates were then placed at +4° C. for 16 to 18 hours. The solutions were then removed by turning the plates and each well was saturated with a 1% PBS-BSA solution (bovine serum albumin). Three additional wells without the substrate underwent the same treatment and were used as blanks.
Epithelial cells were detached from the culture dishes using a trypsin/EDAT solution (0.05-0.02%) then suspended in DMEM medium without additives for the cell lines and in KBM-2 without additive for human keratinocytes. The number of seeded cells per well is given in the graphs (50,000 to 100,000 cells per well).
After cell seeding, the multi-well plates were placed in an incubator at 37° C. under 5% CO2. After incubation for 30 to 60 minutes, cells were observed under a phase contrast microscope in order to verify that the test was conducted correctly. The adhesion medium was then removed and each well was washed in a sterile PBS solution to remove non-adhering cells. The remaining cells, attached to the substrate, were then fixed using a solution of 1% glutaraldehyde in PBS for 15 minutes. The glutaraldehyde solution as removed and the cells were stained with a crystal violet solution diluted to 1% in distilled water for 30 minutes.
After rinsing in water several times, cells were permeabilized by means of a 0.02% triton solution for 15 minutes in order to solubilize the crystal violet. Absorbances were read at 570 nm using an ELISA plate reader (MR500, Dynatech, Guernsey, Channel Islands). Each experimental point was carried out in triplicate. The blank value represented the mean absorbance of 3 control wells (BSA). This was subtracted from each of the optical density values for the experimental points. We then calculated the mean for the three absorbance values for each of the triplicate samples.
The results are presented in the form of a graph with the absorbance values on the ordinate and the various substrate concentrations on the abscissa. Attached cells were photographed by phase contrast microscopy.
The following cells from epithelial cell lines were used initially (commonly used in preliminary studies on cell adhesion): • line HT1080 cells (human fibrosarcoma), American Type Culture Collection CCL-121. • line HB100 cells (human mammary epithelium), American Type Culture Collection HTB-124. • line A431 cells (skin epitheliods), American Type Culture Collection CRL-1555.

[2] = system: HT1080 cells; experiment: Cell proliferation test (XTT), HT1080; assay type: cell-based, human; conditions: HT1080, peptide 0.5% and 1%, serum-free medium, 5th hour
Method: HT1080 cells (A) and HBL100 cells (B) were seeded in 96-well plates at a rate of 10,000 cells per well. After 24 hours, the culture medium was removed and replaced with serum-free medium containing the peptide quantities given in the graphs and reagent XTT. The plates were then placed in the incubator at 37° C. and absorbance readings were taken at 1 h, 2 h, 3 h, 4 h and 5 h. Peptide-free controls were carried out on the same plate.
The effect of the peptide on cell proliferation was analysed with the aid of a calorimetric test (Cell Proliferation Kit XTT, Roche Diagnostics, Meylan, France) on the cells use for the cell adhesion test, i.e. HT1080, A431, HBL100 cells and normal human keratinocytes from young and elderly individuals.
The chemical reaction used in the test is based on the production of NADPH by living cells, leading to the reduction of yellow tetrazolium XTT salts to orange formazan salts. Absorbance was measured at 490 nm using an ELISA plate reader. Cells were seeded in 96-well plates at a rate of 10,000 cells per well (6 wells/condition) in KBM-2 culture medium. After 24 hours in culture at 37° C. with 5% CO2, the culture medium was removed and replaced with serum-free medium containing the peptide quantities given in the graphs and the test reagent. The plates were then placed in the incubator at 37° C. and absorbance readings were taken at 1 h, 2 h, 3 h, 4 h and 5 h. […]

[3] = system: NHKs; experiment: Cell adhesion of NHKs to peptide co-immobilized with collagen IV; assay type: cell-based, human; conditions: collagen IV fixed quantity 0.06 mg, 50,000 cells per well, percentage of COL4 alone
Method: Peptides 1, 2 and 3 (variable quantities indicated) and collagen IV (fixed quantity 0.06 mg) were co-immobilized in 96-well plates. 5×104 NHKs were deposited in each well and plates were incubated at 37° C. for 1 hour. After washing, attached cells were fixed and cell adhesion was measured as described in the methodology section. Cell adhesion in the presence of the peptide is given as a percentage of cell adhesion obtained with collagen IV alone. Cells were observed by phase contrast microscopy then photographed. Bar=50 μm.
A decreasing range of LN5 (prepared in the laboratory) and COL4 (BD Biosciences, Le Pont de Claix, France) quantities was made up by successive dilution in PBS. These solutions were immediately distributed into a 96-well culture plate (Costar) at a rate of 100 μl per well. The experiment was conducted in exactly the same way as the experiment described in example 2. The results are given in the form of a graph with the absorbance values representing adhesion on the ordinate and the various substrate concentrations on the abscissa. […]
In order to analyse the effect of the peptide on cell adhesion to DEJ proteins, peptide TALRIRATYGEY (SEQ ID NO.1) (peptide 1) was co-immobilized with LN5 (FIG. 14) and COL4 (FIG. 15). The fixed quantity of matrix protein (LN5 and COL4) and the variable quantity of peptide are given on the graph (FIGS. 14 and 15). […]

TALRIRATYGEY (Human laminin 5) [Peptide 1]
cell adhesion to immobilized peptide ([1]; HBL100, 0 to 10 micrograms immobilized peptide, 8×10^4 cells per well, 1 hour 37° C., absorbance 570 nm): led to cell adhesion | immobilized peptide quantity at which adhesion occurred ([1]; HBL100, FIG. 2): 0.31 micrograms | immobilized peptide quantity at which maximum adhesion was achieved ([1]; HBL100, FIG. 2): 1.25 micrograms | mean increase in cell proliferation compared to the control [2]: 8% | effect on adhesion of keratinocytes to COL4 (co-immobilized) [3]: no significant effect
